We go through 23 molecules from PubChem BioAssay AID276 (DTP/NCI, 2004).

This assay deals with B6C3F1 mice, Lewis lung carcinoma iv, survival T/C. Put plainly: NCI In Vivo Anticancer Drug Screen. Data for tumor model Lewis Lung Carcinoma (intravenous) in B6C3F1 mice. Conditions: endpoint: median survival time, schedule: Q01DX009 (ip), higher = longer survival. Put shortly:
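Read-out is survival, expressed as the treated-group measurement over the vehicle control-group measurement. Animals bore a transplantable tumor and were given compound.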

The mark [1] stands for this setting: dose: 12.5 mg/kg/injection, vehicle: saline.
The mark [2] stands for this setting: dose: 25.0 mg/kg/injection, vehicle: saline.
The mark [3] stands for this setting: dose: 50.0 mg/kg/injection, vehicle: saline.
The mark [4] stands for this setting: dose: 100.0 mg/kg/injection, vehicle: saline.
[5] abbreviates: dose: 200.0 mg/kg/injection, vehicle: saline.
The mark [6] stands for this setting: dose: 12.5 mg/kg/injection, vehicle: Klucel (hydroxypropylcellulose) (HPC).
Setting [7] is: dose: 25.0 mg/kg/injection, vehicle: Klucel (hydroxypropylcellulose) (HPC).
Where [8] appears, read: dose: 100.0 mg/kg/injection, vehicle: Klucel (hydroxypropylcellulose) (HPC).
[9] abbreviates: dose: 200.0 mg/kg/injection, vehicle: Klucel (hydroxypropylcellulose) (HPC).
The mark [10] stands for this setting: dose: 400.0 mg/kg/injection, vehicle: Klucel (hydroxypropylcellulose) (HPC).
The mark [11] stands for this setting: dose: 6.25 mg/kg/injection, vehicle: saline with Tween-80.
Setting [12] is: dose: 50.0 mg/kg/injection, vehicle: Klucel (hydroxypropylcellulose) (HPC).
The mark [13] stands for this setting: dose: 25.0 mg/kg/injection, vehicle: saline with Tween-80.
[14] abbreviates: dose: 50.0 mg/kg/injection, vehicle: saline with Tween-80.
Setting [15] is: dose: 100.0 mg/kg/injection, vehicle: saline with Tween-80.
[16] abbreviates: dose: 200.0 mg/kg/injection, vehicle: saline with Tween-80.
Setting [17] is: dose: 400.0 mg/kg/injection, vehicle: saline with Tween-80.
The mark [18] stands for this setting: dose: 12.5 mg/kg/injection, vehicle: saline with Tween-80.
The mark [19] stands for this setting: dose: 6.25 mg/kg/injection, vehicle: saline.
The mark [20] stands for this setting: dose: 50.0 mg/kg/injection, vehicle: water.
[21] abbreviates: dose: 100.0 mg/kg/injection, vehicle: water.
Setting [22] is: dose: 200.0 mg/kg/injection, vehicle: water.
Setting [23] is: dose: 400.0 mg/kg/injection, vehicle: water.
The mark [24] stands for this setting: dose: 12.5 mg/kg/injection, vehicle: water.
Setting [25] is: dose: 25.0 mg/kg/injection, vehicle: water.

The structures appear in SMILES notation. “And” between values parts separate entries of the source, which are not always exact repeats. Identical values can stand only once. Inconclusive results and toxic doses are left out.

`CN(C)[C@@H]1C(=O)C(C(N)=O)=C(O)[C@@]2(O)C(=O)C3=C(O)c4c(O)ccc(Cl)c4[C@@](C)(O)[C@H]3C[C@@H]12`: the T/C was 100 % of control under setting [1]; 100 % of control under setting [2]; 109 % of control under setting [3]; 113 % of control under setting [4]; 101 % of control under setting [5].

`COc1ccc2ccccc2c1C1NC(=O)c2ccccc2N1` (stereo unspecified): the T/C reads like this: under setting [6], 97 % of control; under setting [7], 100 % of control; under setting [8], 99 % of control; under setting [9], 101 % of control; under setting [10], 101 % of control.

Consider `Nc1nc(N)c2c(ccc3c2ccn3Cc2cccc([N+](=O)[O-])c2)n1`, for which the T/C (dose: 1.56 mg/kg/injection, vehicle: saline with Tween-80) was 98 % of control; the T/C (dose: 3.12 mg/kg/injection, vehicle: saline with Tween-80) was 102 % of control; the T/C under setting [11] is 103 % of control.

In the case of `Oc1c(Cl)cc(Cl)cc1C1N2CCCCC2C2c3cccn3-c3ccccc3N21` (stereo unspecified), the T/C runs as follows: under setting [6], 106 % of control; under setting [7], 101 % of control; under setting [12], 104 % of control; under setting [8], 95 % of control; under setting [9], 102 % of control.

As to `CC(=O)Oc1[nH]c(=O)c2cccc3c2c1CCC3`, the T/C was 104 % of control under setting [13]; 122 % of control under setting [14]; 102 % of control under setting [15]; 107 % of control under setting [16]; 105 % of control under setting [17].

As to `NC(CCC(=O)NC(CS)C(=O)NCC(=O)O)C(=O)O` (stereo unspecified), the T/C is 100 % of control under setting [3]; 101 % of control under setting [4]; 95 % of control under setting [5]; 103 % of control (dose: 400.0 mg/kg/injection, vehicle: saline).

With `O=C(O[Si](Cc1ccccc1)(Cc1ccccc1)Cc1ccccc1)N(CCCl)CCCl`, the T/C by setting is: under setting [11], 100 % of control; under setting [18], 108 % of control; under setting [13], 90 % of control and 100 % of control; under setting [14], 103 % of control; under setting [15], 108 % of control and 123 % of control; under setting [16], 124 % of control.

As to `CN(C)c1nc(N(C)C)nc(N(C)C)n1`, the T/C was 101 % of control under setting [13], 114 % of control under setting [14], 109 % of control under setting [15] and 111 % of control under setting [16].

For `Cc1nc(N)nc(N)c1-c1ccc(Cl)c(Cl)c1`, the T/C reads like this: (dose: 0.32 mg/kg/injection, vehicle: saline) 97 % of control; (dose: 0.63 mg/kg/injection, vehicle: saline) 109 % of control; (dose: 1.25 mg/kg/injection, vehicle: saline) 120 % of control; (dose: 2.5 mg/kg/injection, vehicle: saline) 113 % of control; (dose: 5.0 mg/kg/injection, vehicle: saline) 124 % of control; (dose: 10.0 mg/kg/injection, vehicle: saline) 112 % of control.

`O=C(O)C1Cc2nc[nH]c2CN1CO` (stereo unspecified): the T/C was 109 % of control under setting [18]; 104 % of control under setting [13]; 99 % of control under setting [14]; 114 % of control under setting [15]; 103 % of control under setting [16]; 98 % of control under setting [17].

With `CN=C(NC#N)NCCSCc1nc[nH]c1C`, the T/C is 104 % of control (dose: 12.0 mg/kg/injection, vehicle: Klucel (hydroxypropylcellulose) (HPC)); 100 % of control under setting [7]; 103 % of control under setting [12]; 99 % of control under setting [8]; 105 % of control under setting [9]; 95 % of control under setting [10].

As for `O=c1[nH]c2c(ccc3cnccc32)c2c1CCC2`, the T/C runs as follows: (dose: 3.12 mg/kg/injection, vehicle: saline) 109 % of control; under setting [19], 102 % of control; under setting [1], 105 % of control; under setting [2], 109 % of control.

Consider `NC1=NC(=O)N2CC12` (stereo unspecified), for which the T/C runs as follows: under setting [1], 110 % of control; under setting [2], 110 % of control; under setting [4], 110 % of control; under setting [5], 109 % of control.

`NC(=O)c1ncn2c(=O)n(CCCl)nnc12`: the T/C runs as follows: (dose: 3.13 mg/kg/injection, vehicle: saline) 113 % of control; under setting [19], 123 % of control; under setting [2], 309 % of control.

Regarding `CCC(=O)Sc1ccccc1C(=O)Nc1ccc(Cl)cc1`, the T/C runs as follows: under setting [13], 94 % of control; under setting [14], 100 % of control; under setting [15], 107 % of control; under setting [16], 89 % of control; under setting [17], 105 % of control.

Consider `[Na+]`, for which the T/C is 102 % of control under setting [20]; 99 % of control under setting [21]; 95 % of control under setting [22]; 94 % of control under setting [23]; 108 % of control (dose: 800.0 mg/kg/injection, vehicle: water).

As for `O=CC(O)C(O)C(O)C(O)C(=O)O.[NH-]C1CCCCC1[NH-].[Pt+2]` (stereo unspecified), the T/C runs as follows: (dose: 0.2 mg/kg/injection, vehicle: saline) 93 % of control; (dose: 0.39 mg/kg/injection, vehicle: saline) 94 % of control; (dose: 0.78 mg/kg/injection, vehicle: saline) 93 % of control; (dose: 1.56 mg/kg/injection, vehicle: saline) 106 % of control.

With `CCc1ccccc1N1CCN(C(=O)c2cc(OC)c(OC)c(OC)c2)CC1`, the T/C runs as follows: (dose: 6.25 mg/kg/injection, vehicle: Klucel (hydroxypropylcellulose) (HPC)) 106 % of control; under setting [6], 103 % of control; under setting [7], 110 % of control; under setting [12], 110 % of control; under setting [8], 105 % of control.

Consider `O=S(=O)(SC(S(=O)(=O)c1ccccc1)S(=O)(=O)c1ccccc1)c1ccccc1`, for which the T/C under setting [8] is 100 % of control, the T/C under setting [9] is 102 % of control and the T/C under setting [10] is 98 % of control.

Regarding `Cc1noc(N)c1N`, the T/C is, setting by setting: under setting [24], 101 % of control; under setting [25], 95 % of control; under setting [20], 102 % of control; under setting [21], 92 % of control; under setting [22], 98 % of control; under setting [23], 106 % of control.

On to `COC(=O)Nc1nc2ccc(SC)cc2c(=O)[nH]1`, for which the T/C by setting is: under setting [7], 99 % of control; under setting [12], 110 % of control; under setting [8], 100 % of control; under setting [9], 110 % of control.

With `[Cl][Pt][Cl].[NH-]C(CO)C(=O)O` (stereo unspecified), the T/C runs as follows: (dose: 6.25 mg/kg/injection, vehicle: water) 101 % of control; under setting [24], 111 % of control; under setting [25], 105 % of control; under setting [20], 110 % of control.

`COC1=C(C)C(=O)C2=C(C1=O)C1C3CC4=C(C(=O)C(OC)=C(C)C4=O)C(CNC(=O)C(C)=O)N3C(C#N)C(C2)N1C` (stereo unspecified): the T/C by setting is: (dose: 0.12 mg/kg/injection, vehicle: Klucel (hydroxypropylcellulose) (HPC)) 101 % of control; (dose: 0.25 mg/kg/injection, vehicle: Klucel (hydroxypropylcellulose) (HPC)) 108 % of control; (dose: 0.5 mg/kg/injection, vehicle: Klucel (hydroxypropylcellulose) (HPC)) 107 % of control; (dose: 1.0 mg/kg/injection, vehicle: Klucel (hydroxypropylcellulose) (HPC)) 113 % of control.
